Patent US7056491B2, “Monoterpenes and sesquiterpenes as chemotherapeutic and radiation sensitizers and immunomodulators” (Wisconsin Alumni Research Foundation, priority 2000, dated 2006)
Read-outs that look alike come from different tables or passages of the source.

What was measured:
[1] = test system: glioma and prostate cancer cell lines; experiment: Augmentation of CD95 (Fas)-mediated apoptosis with anti-CD95 antibody CH11; type: cell-based; settings: T98G, U87, U353, U251; 1 mM POH with CH11, absence of cycloheximide
Method: Referring to FIG. 25, semiconfluent cultures of glioma and prostate cancel cell lines were treated with the 1 mM POH in the presence or absence of the anti-CD95 antibody CH11 (100 ng/ml), radiation (8.5 Gy for T98G, U87MG, U373 and 5.5 Gy for PC3 and DU145), cycloheximide (CX) or a combination of all for a period of 72 hours. Cells treated with cycloheximide and anti-Fas served as a positive control. The death by treating cells with 1 mM POH or radiation alone was also quantitated. The estimation of apoptosis was done by staining the harvested cells with propidium iodide as described before. Each graphed point in the figure represents the average values of duplicate samples.

rat mammary carcinoma = settings: cited from earlier work; for regression of rat mammary carcinoma: dietary administration
DLD-1 colon cancer cells = experiment: Clonogenic survival assay, POH with or without radiation, DLD-1; type: cell-based, human
Method: (§1) Table 1 summarizing data from different cell lines treated with radiation, radiation plus POH, and POH alone. Subconfluent cultures of human glioma (T98G, M059K, U251), prostate (DU145, PC3), colon (DLD-1, HT29) and pancreatic (MIAPACA) cancer cell lines were treated with 0.1–0.5 mM of POH for 72 hours and subsequently to increasing doses of radiation from 0.1 Gy to 8.5 Gy. Control cells were treated with medium alone. The cells were harvested and an optimum number of cells were allowed to grow for 14 days. The resulting colonies were stained and counted. Each graphed point represents mean values ± SE values of triplicate dishes. Percentage survival was determined as the ratio of plating efficiencies for each irradiated group to that of the unirradiated control.

[2] = test system: glioma, prostate, melanoma and colon cell lines; experiment: Cell cycle analysis by propidium iodide flow cytometry; type: cell-based; settings: 1 mM POH 72 hours
Method: The indicated glioma (T98G, U251, U87, C6, U353 and MO59K), prostate (DU145 and PC3) melanoma (Mel5 and M21) and colon (DLD-1, HT29) cell lines were treated with medium or with 1 mM of POH dissolved in medium for 72 hours. The cells were harvested, fixed stained with propidium iodide and analyzed by flow cytometry to estimate the various phases of the cell cycle. Each point on the graph represents mean values of duplicate dishes.

T98G cells = experiment: Clonogenic survival assay, POH with or without radiation, T98G; type: cell-based, human
Source text: Cell Line: The T98G cell line was derived from a resection specimen obtained from a patient with glioblastoma multiforme. T98G cells express endogenous mutant p53 and introduction of wild-type p53 sensitizes these cells to radiation. The radioresistance of this cell line has also been attributed to the presence of high intracellular levels of GSH, which down-regulates NFκB binding activity after exposure to ionizing radiation. A clonogenic survival assay was used to assess the response to treatment in vitro, as it is a measure of reproductive capacity.
Clonogenic Survival Assays: The T98G cell line was obtained from ATCC and maintained in DMEM-F12 medium containing 10% fetal bovine serum, 1% penicillin, streptomycin and 1 mM non-essential amino acids in a humidified incubator at 37° C. Stock solution of POH was made in the medium. One set of plates was treated with graded doses of POH (0.1 mM to 1 mM) for a period of 72 hours. Control dishes were treated with medium alone. All cells were irradiated at a dose rate of 7.5Gy/min using a CS-137 irradiator with single doses ranging from 1 Gy to 8.5Gy. The range of radiation doses used encompasses that used to treat patients.
Following irradiation, both POH treated and untreated cells were harvested by trypsinization and washed with PBS. Cells were incubated for two weeks after initial plating, fixed with methanol, stained with crystal violet and the number of colonies per dish quantitated. Survival was determined as the ratio of plating efficiencies for each irradiated group to that of the unirradiated control.
Subconfluent cultures of human glioma cell line T98G were treated with 0.1–0.5 mM of Perillyl Alcohol for 72 hours and subsequently to increasing doses of radiation from 0.1 Gy to 8.5 Gy. Control cells were treated with medium alone. The cells were harvested and an optimum number of cells were allowed to grow for 14 days. The resulting colonies were stained and counted. Each graphed point represents mean values ± SE values of triplicate dishes.
as §1

pancreatic carcinoma = settings: POH-fed hamsters; control animals showed tumor growth; cited from earlier work
[3] = test system: glioma, prostate, colon and melanoma cell lines; experiment: Apoptosis by flow cytometry of propidium iodide stained cells (sub G0/G1 peak); type: cell-based, human; settings: 72 hours
Source text: In the present study we evaluated the effect of POH treatment on a panel of human glioma (T98G, MO59K, U-87, U-373, U-251), prostate cancer cell lines (PC3 and DU145), colon (DLD-1, HT29), melanoma (Mel5, M21).

[4] = test system: PC3 prostate cancer cells; experiment: Clonogenic survival assay, POH with or without radiation, PC3; type: cell-based, human
Method: FIGS. 2–14 illustrates additional work with other monoterpenes and cell lines. […] Subconfluent cultures prostate cancer cell line PC3 were treated with 0.1–0.5 mM of POH for 72 hours and subsequently to increasing doses of radiation from 0.1 Gy to 8.5 Gy. Control cells were treated with the indicated doses of radiation alone. The cells were harvested and an optimum number of cells were allowed to growth for 14 days. The resulting colonies were stained and counted. Each graphed point represents mean values ± SE values of triplicate dishes.
as §1

Structure (SMILES): C=C(C)[C@@H]1CC=C(CO)CC1 [POH, Perillyl alcohol]
- sensitization to Fas mediated apoptosis [1]: sensitized
- potency at inducing tumor regression relative to limonene (rat mammary carcinoma; dietary): greater than five times more potent than limonene
- regression of rat mammary carcinoma (rat mammary carcinoma; induced by DMBA): 84%
- regression of rat mammary carcinoma (rat mammary carcinoma; induced by NMU): 60%
- % SURVIVAL (DLD-1 colon cancer cells; 0.1 mM POH 72 h, no radiation): 1.690 ± 0.100%
- % SURVIVAL (DLD-1 colon cancer cells; 0.1 mM POH + 5.5 Gy): 0.038 ± 0.009%
- % SURVIVAL (DLD-1 colon cancer cells; 0.3 mM POH 72 h, no radiation): 0.899 ± 0.070%
- % SURVIVAL (DLD-1 colon cancer cells; 0.3 mM POH + 5.5 Gy): 0.050 ± 0.003%
- % SURVIVAL (DLD-1 colon cancer cells; 0.5 mM POH 72 h, no radiation): 0.019 ± 0.001%
- % SURVIVAL (DLD-1 colon cancer cells; 0.5 mM POH + 5.5 Gy): 0.001 ± 0.001%
- cell cycle effect ([2]; MO59K): G0/G1 block
- cell cycle effect ([2]; all the cell lines except MO59K): block in the G2/M phase
- concentration with the most pronounced radiosensitization (T98G cells): 0.5 mM
- lowest concentration at which radiosensitization was observed (T98G cells): 0.1 mM
- % SURVIVAL (T98G cells; 0.1 mM POH 72 h, no radiation): 0.755 ± 0.016%
- % SURVIVAL (T98G cells; 0.1 mM POH + 5.5 Gy): 0.130 ± 0.002%
- % SURVIVAL (T98G cells; 0.3 mM POH 72 h, no radiation): 0.660 ± 0.024%
- % SURVIVAL (T98G cells; 0.3 mM POH + 5.5 Gy): 0.066 ± 0.004%
- % SURVIVAL (T98G cells; 0.5 mM POH 72 h, no radiation): 0.500 ± 0.006%
- % SURVIVAL (T98G cells; 0.5 mM POH + 5.5 Gy): 0.037 ± 0.014%
- sensitization to radiation induced cell death (T98G cells; pretreatment before and during irradiation): dose dependent sensitization
- antitumor effect in pancreatic carcinoma models (pancreatic carcinoma): either regression or no growth of the tumors
- effect of higher concentrations on tumor cell lines ([3]; 1 mM POH): cell death via apoptosis
- toxicity to tumor cell lines ([3]; clinically relevant doses 0.1 mM–0.5 mM): relatively non-toxic
- % SURVIVAL ([4]; 0.1 mM POH 72 h, no radiation): 0.734 ± 0.038%
- % SURVIVAL ([4]; 0.1 mM POH + 5.5 Gy): 0.007 ± 0.0009%
- % SURVIVAL ([4]; 0.3 mM POH 72 h, no radiation): 0.366 ± 0.017%
- % SURVIVAL ([4]; 0.3 mM POH + 5.5 Gy): 0.003 ± 0.0058%
- % SURVIVAL ([4]; 0.5 mM POH 72 h, no radiation): 0.244 ± 0.009%
- % SURVIVAL ([4]; 0.5 mM POH + 5.5 Gy): 0.001 ± 0.00067%
